This note sets out measurements from patent US7662856B2, “Compositions having antimycrobial activity including a hydroxamate or a hydroxamate and a hydroxlyamine” (The University of Houston System, priority 2003, dated 2010).

The Ki is a dissociation constant, usually derived from enzyme kinetics or from competition with a known ligand. Usually inhibition stands for the drop in the measured response relative to a control, in per cent. The term melting point denotes the temperature of the solid-liquid transition.

Converted amounts (≈) assume the structure as drawn. Like-named read-outs stand apart in the source and are kept apart here. A value given as a limit tells only on which side of the number the result lay.

Data set [1] concerns M. tuberculosis. Briefly: microbe, parasite or virus in culture. Type of data set: cell-based. The note with it: Mycobacterium tuberculosis.
The subject of a further data set is S. aureus. Briefly: microbe, parasite or virus in culture. Type of data set: cell-based. The note with it: Staphylococcus aureus.
Data set [2] concerns the target T1, alanine racemase enzyme from S. aureus (Staphylococcus aureus, UniProt P63479).
T1 sequence (P63479 1-382): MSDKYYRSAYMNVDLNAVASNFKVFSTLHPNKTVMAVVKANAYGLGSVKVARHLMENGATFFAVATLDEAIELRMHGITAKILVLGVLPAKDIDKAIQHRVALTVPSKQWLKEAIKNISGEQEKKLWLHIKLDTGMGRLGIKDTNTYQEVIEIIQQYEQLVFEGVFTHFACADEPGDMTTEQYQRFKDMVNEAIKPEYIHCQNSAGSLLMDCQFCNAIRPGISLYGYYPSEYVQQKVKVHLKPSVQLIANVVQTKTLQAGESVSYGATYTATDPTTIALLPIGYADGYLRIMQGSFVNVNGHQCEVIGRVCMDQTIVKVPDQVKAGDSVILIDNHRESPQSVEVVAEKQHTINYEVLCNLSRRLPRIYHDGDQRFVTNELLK
Briefly: biochemical. The note with it: for inhibition at 2500 µM: read-out: In % (percent inhibition of alanine racemase).

In data set [3] the test system is M. tuberculosis. Type of data set: cell-based.
Data set [4] has as its target alanine racemase enzyme from P. aeruginosa (Pseudomonas aeruginosa, UniProt Q9HTQ2, A178S/N326M/S138R/S262R). Description: biochemical. The settings on record: for inhibition at 2500 µM: read-out: In % (percent inhibition of alanine racemase).
For a further data set, the system named is E. Coli. Description: microbe, parasite or virus in culture. The settings on record: Escherichia coli. It counts as cell-based.
The target of data set [5] is alanine racemase enzyme from E. Coli (Escherichia coli, UniProt P0A6B4). Description: biochemical. The settings on record: for inhibition at 2500 µM: read-out: In % (percent inhibition of alanine racemase).
The target of data set [6] is alanine racemase enzyme from M. tuberculosis (Mycobacterium tuberculosis, UniProt P9WQA9, DEL103-104). Type of data set: biochemical.
Sequence of alanine racemase enzyme from M. tuberculosis (P9WQA9 whole entry, looked up, stated change not applied): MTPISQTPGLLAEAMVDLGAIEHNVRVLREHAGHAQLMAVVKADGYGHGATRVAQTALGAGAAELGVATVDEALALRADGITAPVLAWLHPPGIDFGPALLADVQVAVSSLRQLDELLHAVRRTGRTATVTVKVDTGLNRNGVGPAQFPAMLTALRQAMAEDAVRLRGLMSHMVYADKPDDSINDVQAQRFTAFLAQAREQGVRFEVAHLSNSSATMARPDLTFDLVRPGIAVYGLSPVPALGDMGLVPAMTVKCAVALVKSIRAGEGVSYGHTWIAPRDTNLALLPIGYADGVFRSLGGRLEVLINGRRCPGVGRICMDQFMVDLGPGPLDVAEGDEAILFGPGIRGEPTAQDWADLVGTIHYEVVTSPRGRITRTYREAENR

Sequence of alanine racemase enzyme from E. Coli (P0A6B4 whole entry): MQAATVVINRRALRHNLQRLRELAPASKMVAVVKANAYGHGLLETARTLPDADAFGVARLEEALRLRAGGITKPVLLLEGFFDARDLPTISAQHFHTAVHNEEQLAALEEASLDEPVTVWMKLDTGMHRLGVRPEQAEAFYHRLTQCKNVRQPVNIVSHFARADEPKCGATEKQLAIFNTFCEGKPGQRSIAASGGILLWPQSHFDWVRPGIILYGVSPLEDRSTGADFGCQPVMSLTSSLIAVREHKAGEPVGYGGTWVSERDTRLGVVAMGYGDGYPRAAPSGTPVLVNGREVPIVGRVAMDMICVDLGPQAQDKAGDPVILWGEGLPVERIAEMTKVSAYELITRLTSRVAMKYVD
Sequence of alanine racemase enzyme from P. aeruginosa (Q9HTQ2 whole entry S138R/A178S/S262R/N326M): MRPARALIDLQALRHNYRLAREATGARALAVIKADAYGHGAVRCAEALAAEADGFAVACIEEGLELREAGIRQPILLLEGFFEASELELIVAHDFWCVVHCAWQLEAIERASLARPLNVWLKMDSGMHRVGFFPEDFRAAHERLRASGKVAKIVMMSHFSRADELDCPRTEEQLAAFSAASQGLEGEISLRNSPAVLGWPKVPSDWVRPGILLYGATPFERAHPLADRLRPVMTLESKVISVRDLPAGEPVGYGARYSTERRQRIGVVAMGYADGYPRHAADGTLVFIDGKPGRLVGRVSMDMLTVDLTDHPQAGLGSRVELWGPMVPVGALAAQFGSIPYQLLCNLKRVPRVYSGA

In the case of `CNCC(=O)NO` [CH3NHCH2C(O)NHOH, Sarcosine Hydroxamic Acid], the melting point was 140 to 141 °C. In addition, the MIC against M. tuberculosis [1] was 200 µg/mL (≈ 1920 µM). The MIC in the data set with S. aureus is above 5 mM. Also, in [2] (S. aureus ALR, read-out: Ki), the Ki was 14300 µM. Further, the inhibition at 2500 µM in data set [2] stood at 28 ± 5%. Further, the “Days of Detection” value in the data set with M. tuberculosis [3] was determined as 32.5 days. Also, in [4], the Ki is 18200 µM and the inhibition at 2500 µM is 24 ± 5%. Also, the MIC against E. Coli was above 5 mM. Further, in [5], the affinity corresponds to a Ki of 5700 µM and the inhibition at 2500 µM is 34 ± 12%. For the same molecule, in data set [6], the “% In in TB-ALR-assay” value is on record as 81% and the “In % (percent inhibition of alanine racemase)” value worked out at 81 ± 7%.
The molecule `Cl.NCCC(=O)NO` [HCl•H2NCH2CH2C(O)NHOH, β-Alanine Hydroxamic Acid Hydrochloride] showed a melting point of 140 to 142 °C. The MIC in the data set on M. tuberculosis [1] was above 200 µg/mL. This molecule yielded an MIC against S. aureus above 5 mM. In addition, the inhibitory constant (Ki) in [2] (Ki) stood at 401 µM. Further, the inhibition at 2500 µM in [2] worked out at 49 ± 12%. For the same molecule, the “Days of Detection” value in the data set on M. tuberculosis [3] amounted to 8.5 days. Also, in data set [4], the affinity, expressed as Ki, was 894 µM and the inhibition at 2500 µM amounted to 34 ± 9%. Also, the MIC against E. Coli was above 5 mM. For the same molecule, in [5], the Ki stood at 1210 µM and the inhibition at 2500 µM was 37 ± 10%. Besides, in data set [6], the “% In in TB-ALR-assay” value came out at 79% and the “In % (percent inhibition of alanine racemase)” value is given as 79 ± 12%.
For `C[C@H](N)C(=O)NO.Cl` [HCl•H2NCH(CH3)C(O)NHOH*, L-Alanine Hydroxamic Acid Hydrochloride], the melting point was 178 to 180 °C. Moreover, in the data set with S. aureus, the MIC was above 5 mM. The same molecule returned a Ki in [2] (Ki) of 1300 µM. In addition, the inhibition at 2500 µM in data set [2] was determined as 32 ± 8%. Further, in data set [4], the Ki is 1060 µM and the inhibition at 2500 µM was determined as 33 ± 2%. The molecule also registered an MIC in the data set with E. Coli above 5 mM. In addition, in data set [5], affinity was put at a Ki of 2780 µM and the inhibition at 2500 µM turned out to be 39 ± 8%.
